Literature values as cited in PMC5657425 (Pediatric blood & cancer, 2016).

Key:
[1] = test system: Rh18 xenograft; details: single agent
[2] = test system: PPTP solid tumor xenografts
[3] = test system: well-differentiated or dedifferentiated liposarcoma

| Compound | response of Rh18 [1] | response of the osteosarcoma panel ([2]; osteosarcoma panel) | objective regressions in twenty six solid tumor models with wild-type TP53 ([2]; prior PPTP testing) | adverse effect in phase 1 and 2 evaluations [3] | stable disease among 20 patients treated ([3]; phase 2, well-differentiated or dedifferentiated liposarcoma) |
| --- | --- | --- | --- | --- | --- |
| COc1cc(C(=O)O)ccc1NC(=O)[C@@H]1N[C@@H](CC(C)(C)C)[C@](C#N)(c2ccc(Cl)cc2F)[C@H]1c1cccc(Cl)c1F [RG7388] | unresponsive |  |  |  |  |
| CCOc1cc(C(C)(C)C)ccc1C1=N[C@@](C)(c2ccc(Cl)cc2)[C@@](C)(c2ccc(Cl)cc2)N1C(=O)N1CCN(CCCS(C)(=O)=O)CC1 [RG7112] |  | no response | five | thrombocytopenia | 14 |
